Several values for one entry are separate records, joined by “and”; a condition that tells them apart may be missing. Identical values can stand only once.
Legend:
CD8+ cells (T-PSA-3) = test: Apoptosis (TUNEL) assay of peptide-stimulated T cells; type: cell-based, human; conditions: T cells stimulated with peptide-pulsed autologous B cells, IVS-5, TUNEL
Excerpt: FIGS. 5A–5C. DNA fragmentation in peptide stimulated T cells using the TUNEL assay. Apoptosis of CD8^+ cells activated by PSA peptide pulsed autologous B cells. FIG. 5A: T-PSA-3 cells stimulated with B cells with no peptide; FIG. 5B: T-PSA-3 cells stimulated with B cells pulsed with PSA-3 peptide; FIG. 5C: T-PSA-3 cells stimulated with B cells pulsed with PSA-3A peptide. Numbers in each histogram indicate percent of apoptotic cells (cells above line) as described in the Examples section.
Apoptosis Assay. T cells were incubated for 48 h in the presence of peptide-pulsed autologous B cells as described in the IVS procedure, above, and replated to 96-well plates for 24 h. Apoptosis was analyzed using the terminal deoxynucleotidyl transferase-mediated nick-end labeling (TUNEL) assay (Y. Gavrieli et al., 1992, J. Cell Biol. 119:493–501).

T-PSA-3 cells = test: Cytometric Bead Array cytokine production by peptide-stimulated T cells; type: cell-based, human; conditions: T-PSA-3 + peptide-pulsed autologous B cells, 24 h supernatant
Method: (§1) Detection of Cytokines. Supernatant of T cells exposed for 24 h to peptide-pulsed infected DC, rV-PSA infected DC, or rV-PSA-3A infected DC, in IL-2-free medium at various responder: stimulator ratios, were screened for secretion of IFN-γ using an ELISA kit (R & D Systems, Minneapolis, Minn.). The results were calculated as pg/ml. A Cytometric Bead Array (CBA) system (BD PharMingen, San Diego, Calif.) was also used to determine the secretion of multiple cytokines by specific T cell lines. The CBA system uses the fluorescence detection by flow cytometry to measure soluble analytes in a particle-based immunoassay. The BD human Th1/Th2 cytokine CBA Kit was employed to measure IL-2, IL-4, IL-5, IL-10, TNF-α, and IFN-γ protein levels in a single sample. The cytokine capture beads were mixed with PE-conjugated detection antibodies and then incubated with recombinant cytokine standards or test samples to form sandwich complexes. The samples results were generated in graphical and tabular format using BD CBA analysis software. The results were calculated as pg/ml.
The cytokine profile of T cells stimulated with APCs pulsed with either the PSA-3 or the PSA-3A peptide was then analyzed. The T cell line derived using the PSA-3 peptide was used in these studies, and the APCs used were autologous B cells. A Cytometric Bead Array (CBA) assay was used for analysis (see Examples section) using supernatant fluids obtained 24 h after stimulation. FIGS. 6A–6C illustrate […] of the 10 internal standards used for the calibration of the results obtained in this assay. FIGS. 6D–6F show the levels of each of six cytokines produced by T cells stimulated with APCs pulsed with no peptide, PSA-3A peptide, and PSA-3 peptide, respectively. […] The results obtained for IL-5 will be discussed below (Conclusions section).

T-PSA-3A cells = test: IFN-γ production by T cell line stimulated with peptide-pulsed DCs (ELISA); type: cell-based, human; conditions: peptide 25 μg/ml
Method: as §1
Table 2: Production of IFN-γ by a T cell line stimulated with PSA-3 or agonist PSA-3A peptides. The PSA-specific T cell line T-PSA-3A was used as effector cells at IVS-3. T-PSA-3A cells were stimulated with irradiated HLA-A2 positive allogeneic DCs either pulsed with PSA-3 or PSA-3A peptide at a concentration of 25 μg/ml and an effector-to-APC ratio of 10:1. After 24-h culture supernatants were collected and screened for the secretion of IFN-γ. APC=antigen […].

DCs = test: IL-12 production by peptide-pulsed DCs in the presence of T cells; type: cell-based, human
Method: It has been previously shown that the activation of T cells by peptidepulsed DCs is related to the level of IL-12 production by the DCs. Studies were therefore conducted to determine the levels of IL-12 production by DCs pulsed with PSA-3 and PSA-3A peptides in the presence of T cells. […] When DCs pulsed with the PSA3A peptide were incubated with both T cell lines, the DCs incubated with the T-PSA-3A line again produced higher levels of IL-12 than those peptide-pulsed DCs incubated with the T cell line T-PSA-3 (Table 3).

[1] = system: HLA-A2/K^b transgenic mice; test: Immunization of HLA-A2.1/Kb transgenic mice with peptide-pulsed DCs, IFN-γ production by T cells; type: in vivo, mouse; conditions: 24 h
Excerpt: Transgenic Mice. HLA-A2.1/K^b transgenic mice were kindly provided by Dr. L. Sherman (Scripps Laboratories, San Diego, Calif.). Transgenic mice express the product of the HLA-A2.1/Kb chimeric gene in which the alpha-3 domain of the heavy chain is replaced by mouse H-2/K^b domain, but the HLA-A2.1 alpha-1 and alpha-2 domains are unaltered (A. Vitiello et al., 1991, J. Exp. Med. 173:1007–1015; V. H. Engelhard et al., 1991, J. Immunol. 46:1226–1232).
In Vivo Immunization and Murine T cell Cultures. Three groups of HLA-A2.1/K^b transgenic mice (three mice per group) were immunized s.c. (subcutaneously) in the base of the tail with PSA-3 peptide-pulsed HLA-A2.1/K^b DC, PSA-3A peptide-pulsed DCs from HLA-A2.1/K^b transgenic mice, or DCs only. Peptides were used at a concentration of 50 μg/ml and DCs were used at 1×10^6 cell/mouse/injection. A total of three injections were given to each animal, 2 weeks apart. Mice injected with DCs only were used as controls. Mice were sacrificed 7 days after the last injection, and spleen cells were restimulated in vitro with 25 μg/ml of PSA-3 or PSA3A peptide with irradiated syngeneic spleen cell for 6 days. The cytokine production of these bulk cultures was tested. Peptide-pulsed Jurkat A2 (JA2 K^b) cells were used as stimulator cells. Jurkat 0201 K^b cells are stable transfectants of the human T cell leukemia line, Jurkat, which express the product of HLA-A0201K^b climeric gene (L. A. Sherman et al., 1992, Science 258:815–818).
The HLA-A2/K^b transgenic mouse has been previously reported to aid in the determination of the immunogenicity of HLA-A2 peptides for humans. This in vivo system was thus employed to further analyze and compare the immunogenicity of the PSA-3A peptide with that of the native PSA-3 peptide. DCs from the HLA-A2/K^b transgenic mice were pulsed with either the PSA-3 or the PSA-3A peptide and used to vaccinate HLA-A2b mice. DCs alone (no peptide) were also used as a control vaccine. After three vaccinations at 2-week intervals, T cells were isolated from splenocytes obtained 2 weeks after the last vaccination. The T cells were then incubated with Jurkat A2/K^b cells pulsed with the PSA-3 peptide, the PSA-3A peptide, or no peptide, and production of INF-γ was measured from supernatants after 24 h.

HLA-A2 = molecular target: T1, HLA-A2 (Homo sapiens, UniProt P04439, D140Y/D185E/D98H/E176V/E277Q/G131W/G231S/I119V/I121R/I166T/I218V/L300P/L318F/N151K/N90K/P208A/P217A/Q86G/Q94H/R138H/R169H/T345S); test: Peptide binding to HLA-A2 on T2A2 cells (flow cytometry); conditions: peptide 0 to 50 μg/ml, FIG. 1A
T1 construct: endogenous in cells; host or cells: T2A2 / 174CEM-T2 (T2) transport deletion mutant cell line
Method: Single-color flow cytometric analysis. The method for single-color flow cytometric analysis was described previously (F. Guadagni et al., 1990, Cancer Res. 50:6248–6255). Briefly, cells were washed three times with cold Ca^2+ and Mg^2+-free DPBS and then stained for 1 h with mAb against HLA-A2 (A2,69, One Lambda, Inc., Canoga Park, Calif.), using 10 μg of the 1× working dilution per 10^6 cells. Mineral oil plasmacytoma-104E (Cappel/Organon Teknika Corp., West Chester, Pa.) was used as an isotype control. The cells were washed three times and incubated with a 1:100 dilution of fluorescein isothiocyanate (FITC)-labeled goat anti-mouse immunoglobulin (IgG) (Kirkegaard and Perry Laboratories, Gaithersburg, Md.). The cells were immediately analyzed using a Becton Dickinson FACScan equipped with a blue laser with an excitation of […] at 488 nm. Data were gathered from 10,000 live cells, stored and used to generate results.
Peptide Binding to HLA-A2. […] Briefly, 1×10^6 cells in serum-free Iscove's modified Dulbecco's complete medium were incubated with peptides at a concentration of 50 μg/ml in 24 well culture plates at 37° C. in 5% CO2. Flow cytometry for peptide binding was performed using T2 cells and single-color analysis. After cells were washed three times in DPBS, as described above, they were incubated for 1 h with HLA-A2 specific MAb (One Lambda, Inc.) using 10 μg of a 1× working dilution per 10^6 cells. UPC-10 (Cappel/Organon Teknika) was used as isotype control. The cells were washed three times and incubated with 1:100 dilution of FITC-labeled anti-mouse IgG (Becton Dickinson). Analysis was conducted with the FACScan, as described above. Cells were maintained on ice during all cell preparation and staining.
The four analogs were then tested for binding to the HLA-A2 positive T2A2 cells as described in the Examples section. The NCA peptide was previously shown to not bind to HLA-A2, and was used as a negative […] control. Peptides were added to T2A2 cells at concentrations of 0 to 50 μg/ml.

Sequence	Apoptotic CD8+ cells (CD8+ cells (T-PSA-3))	Production of IL-4 (T-PSA-3 cells)	Production of IL-10 (T-PSA-3 cells)	Production of TNF-α (T-PSA-3 cells)	PRODUCTION OF IFN-γ (T-PSA-3A cells; APC DCs, T-PSA-3A T cells present, effector-to-APC 10:1, 24 h, IVS-3)	PRODUCTION OF IFN-γ (T-PSA-3A cells; APC DCs, no T cell, 24 h)	PRODUCTION OF IFN-γ (T-PSA-3A cells; no APC, T-PSA-3A T cells present, 24 h)	IL-12 PRODUCTION (DCs; APC DC, T cell line T-PSA-3, peptide 25 μg/ml, 10:1, 24 h, IVS-4)	IL-12 PRODUCTION (DCs; APC DC, T cell line T-PSA-3A, peptide 25 μg/ml, 10:1, 24 h, IVS-4)	IL-12 PRODUCTION (DCs; no APC, T cell line T-PSA-3, peptide 25 μg/ml, 24 h)	IL-12 PRODUCTION (DCs; no APC, T cell line T-PSA-3A, peptide 25 μg/ml, 24 h)	Production of IFN-γ ([1]; label = peptide pulsed on immunizing DCs, Jurkat A2/K^b cells pulsed with PSA-3A (25 μg/ml))	Production of IFN-γ ([1]; label = peptide pulsed on immunizing DCs, Jurkat A2/K^b cells with no peptide)	Production of IFN-γ ([1]; label = peptide pulsed on immunizing DCs, T cells restimulated with Jurkat A2/K^b cells pulsed with PSA-3 (25 μg/ml))	Production of IFN-γ ([1]; mice immunized with DCs (no peptide), label = peptide pulsed on Jurkat A2/K^b cells)	Binding to HLA-A2 (relative fluorescence, MFI) (HLA-A2)
VISNDVCAQV (SEQ ID NO:1) [PSA-3, reference compound]	4.9% and 4.5%	Low or undetectable levels	Low or undetectable levels	No TNF-α could be detected	280 pg/mL	<15 pg/mL	<15 pg/mL	5.0 pg/ml/5 × 10^5 DC	10.5 pg/ml/5 × 10^5 DC	<0.6 pg/ml/5 × 10^5 DC	<0.6 pg/ml/5 × 10^5 DC	1,969.0 pg/ml/10^6 cells	<37.0 pg/ml/10^6 cells	1,908.0 pg/ml/10^6 cells	<37.0 pg/ml/10^6 cells	
VISNDVCAQL (SEQ ID NO:2) [1–163]																no binding
YISNDVCAQV (SEQ ID NO:4) [Y154]																higher levels than PSA-3

Source: patent US7247615B2, “Peptide agonists of prostate-specific antigen and uses therefor” (priority 2001, dated 2007)
